Results taken from ChEMBL document CHEMBL1128122, “Synthesis of 1,25-dihydroxy-22-thiavitamin D3 and related analogs” (1995).

Test system: HL-60
Experiment: In vitro differentiation-inducing activity of human myeloid leukemia cells (HL-60) into macrophages; compound showed potent activity
Assay type: functional, cell-based

`C=C1/C(=C\C=C2/CCC[C@@]3(C)C2CCC3[C@@H](C)SCCC(O)(CC)CC)C[C@@H](O)C[C@@H]1O` (stereo partly specified) was tested, and the Activity was “compound showed potent activity”.
